Here are results for 15 compounds from patent publication US20260007758A1, “SO[…]-2 RECEPTOR (SST2R) NON-PEPTIDE DRUG CONJUGATES AND USES THEREOF” (Crinetics Pharmaceuticals, Inc., priority 2024, published 2026).

Format in all cases: cell-based
For assay [1], the target named is T1, human somatostatin receptor subtype 2 (Homo sapiens, UniProt P30874).
T1 construct: expressed in transfected cells
Put plainly: Functional assay for SSTR2 agonists (HTRF cAMP). The following applies: CHO-K1 cells stably expressing human SST2; NKH477-stimulated cAMP; 20 min at 37 C; read-out: hSST2 cAMP Avg EC50. The method in brief: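 CHO-K1 cells stably expressing human SSTR2 treated with compound (typically 0-10,000 nM final) for 20 min at 37 °C. Lysate cAMP measured by HTRF (665/620 nm ratio), converted via standard curve; EC50 from cAMP vs concentration.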
In general terms: Time-resolved FRET reads energy transfer from a long-lived donor to a nearby acceptor.

A further assay deals with T2, SST2 (Homo sapiens, UniProt P30874).
T2 construct: host or cells: PathHunter CHO-K1 SST2 cells
T2 sequence (P30874 whole entry): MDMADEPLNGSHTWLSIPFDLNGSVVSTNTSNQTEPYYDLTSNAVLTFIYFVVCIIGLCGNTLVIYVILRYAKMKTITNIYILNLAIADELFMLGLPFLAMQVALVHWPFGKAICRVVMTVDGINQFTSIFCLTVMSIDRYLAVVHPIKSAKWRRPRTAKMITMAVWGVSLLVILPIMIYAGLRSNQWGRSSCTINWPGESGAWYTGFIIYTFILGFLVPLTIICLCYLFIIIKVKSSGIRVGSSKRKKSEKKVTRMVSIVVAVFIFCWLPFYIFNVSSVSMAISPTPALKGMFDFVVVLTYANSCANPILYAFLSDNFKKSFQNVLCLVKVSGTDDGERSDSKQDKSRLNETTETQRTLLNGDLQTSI
As to the kind of experiment: PathHunter CHO-K1 SST2 Internalization Assay. The following applies: PathHunter CHO-K1 SST2 cells; 90 min at 37 C; luminescence; read-out: Internalization EC50. In outline:
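CHO-K1 cells expressing human SST2, 2500 cells/well, grown 48 h, then exposed 90 min at 37 C to 11-point 1:3 NDC dilutions (final top 10 uM). Beta-Glo luminescence after 60 min at room temperature; four-parameter IC50, duplicate mean, background-corrected.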

Assay [2] has as its system NCI-H524 human small cell lung cancer cells. As to the kind of experiment: H524 assay: inhibition of cell proliferation (CellTiter Glo). The following applies: 2 h treatment, washout, additional 70 h incubation. In outline: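 NCI-H524 cells were exposed for 2 h to NDC in an 11-point two-fold series starting at 1 uM. The drug was then washed out and cells grew a further 70 h. CellTiter Glo luminescence gave % inhibition versus untreated control, and IC50 came from a four-parameter nonlinear regression.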

T1 sequence (P30874 whole entry): as above

As a reminder, the EC50 is the concentration at which the effect is half-maximal. For `CC[C@@H](C)[C@H]([C@H](CC(=O)N1CCCC1[C@@H](OC)[C@H](C)C(=O)N[C@@H](C)[C@H](O)c1ccccc1)OC)N(C)C(=O)[C@H](NC(=O)[C@@H](C(C)C)N(C)C(=O)OCc1ccc(NC(=O)[C@@H](C)NC(=O)[C@H](NC(=O)[C@@H](CCCO)NC(=O)CCOCCC(=O)NCCNc2ncc(-c3cc(C)cc(F)c3)c(N3CCC(N)CC3)c2-c2nc3ccc(Cl)cc3[nH]2)C(C)C)c(O[C@H]2O[C@@H](C(=O)O)[C@H](O)[C@@H](O)[C@@H]2O)c1)C(C)C` (stereo partly drawn) [Compound 239], the concentration for a half-maximal effect (EC50) is 0.16 nM in assay [1], 4.9 nM on SST2 and 12 nM in assay [2].
The corresponding values for `CC[C@H](C)[C@@H]([C@@H](CC(=O)N1CCC[C@H]1[C@H](OC)[C@@H](C)C(=O)N[C@H](C)[C@@H](O)c1ccccc1)OC)N(C)C(=O)[C@@H](NC(=O)[C@H](C(C)C)N(C)C(=O)OCc1ccc(NC(=O)[C@H](CCCNC(N)=O)NC(=O)[C@@H](NC(=O)CCOCCC(=O)NCCNc2ncc(-c3cc(C)cc(F)c3)c(N3CCC(N)CC3)c2-c2nc3c(F)c(F)ccc3[nH]2)C(C)C)c(O[C@@H]2O[C@H](C(=O)O)[C@@H](O)[C@H](O)[C@H]2O)c1)C(C)C` [Compound 110] are 1 nM, 23 nM and 120 nM.
The matching figures for `CC[C@H](C)[C@@H]([C@@H](CC(=O)N1CCC[C@H]1[C@H](OC)[C@@H](C)C(=O)N[C@H](C)[C@@H](O)c1ccccc1)OC)N(C)C(=O)[C@@H](NC(=O)[C@H](C(C)C)N(C)C(=O)OCc1ccc(NC(=O)[C@H](C)NC(=O)[C@@H](NC(=O)CCOCCC(=O)NCCNc2ncc(-c3cc(C)cc(F)c3)c(N3CCC(N)CC3)c2-c2nc3ccc(F)cc3[nH]2)C(C)C)c(O[C@@H]2O[C@H](C(=O)O)[C@@H](O)[C@H](O)[C@H]2O)c1)C(C)C` [Compound 138]: 0.072 nM, 4.4 nM and 20 nM.
Take `CC[C@H](C)[C@@H]([C@@H](CC(=O)N1CCC[C@H]1[C@H](OC)[C@@H](C)C(=O)N[C@H](C)[C@@H](O)c1ccccc1)OC)N(C)C(=O)[C@@H](NC(=O)[C@H](C(C)C)N(C)C(=O)OCc1ccc(NC(=O)[C@H](CCCNC(N)=O)NC(=O)[C@@H](NC(=O)c2cn(CCOCCC(=O)NCCNc3ncc(-c4cc(C)cc(F)c4)c(N4CCC(N)CC4)c3-c3nc4ccc(Cl)cc4[nH]3)nn2)C(C)C)c(O[C@@H]2C[C@H](C(=O)O)[C@@H](O)[C@H](O)[C@H]2O)c1)C(C)C` [Compound 131]: the EC50 turned out to be 0.34 nM in assay [1], 4.5 nM on SST2 and 1600 nM in assay [2].
The corresponding values for `CC[C@H](C)[C@@H]([C@@H](CC(=O)N1CCC[C@H]1[C@H](OC)[C@@H](C)C(=O)N[C@H](C)[C@@H](O)c1ccccc1)OC)N(C)C(=O)[C@@H](NC(=O)[C@H](C(C)C)N(C)C(=O)OCc1ccc(NC(=O)[C@H](CCCNC(N)=O)NC(=O)[C@@H](NC(=O)CCOCCC(=O)NCCNc2ncc(-c3cc(C)cc(F)c3)c(N3CCC(N)CC3)c2-c2nc3ccc(Cl)cc3[nH]2)C(C)C)c(O[C@@H]2O[C@H](C(=O)NCCCCCNC(=O)CCCCc3ccc(I)cc3)[C@@H](O)[C@H](O)[C@H]2O)c1)C(C)C` [Compound 225] are 0.26 nM, 1.9 nM and 18 nM.
The matching figures for `CC[C@H](C)[C@@H]([C@@H](CC(=O)N1CCC[C@H]1[C@H](OC)[C@@H](C)C(=O)N[C@H](C)[C@@H](O)c1ccccc1)OC)N(C)C(=O)[C@@H](NC(=O)[C@H](C(C)C)N(C)C(=O)OCc1ccc(NC(=O)[C@H](CCCNC(N)=O)NC(=O)[C@@H](NC(=O)CCOCCOCCOCCOCCC(=O)NCCNc2ncc(-c3cc(C)cc(F)c3)c(N3CCC(N)CC3)c2-c2nc3ccc(Cl)cc3[nH]2)C(C)C)c(OCC(=O)O)c1)C(C)C` [Compound 19]: 0.07 nM, 8.1 nM and 28 nM.
For the compound `CC[C@H](C)[C@@H]([C@@H](CC(=O)N1CCC[C@H]1[C@H](OC)[C@@H](C)C(=O)N[C@H](C)[C@@H](O)c1ccccc1)OC)N(C)C(=O)[C@@H](NC(=O)[C@H](C(C)C)N(C)C(=O)OCc1ccc(NC(=O)[C@H](CCCNC(N)=O)NC(=O)[C@@H](NC(=O)[C@H](CCCO)NC(=O)CCOCCC(=O)NCCNc2ncc(-c3cc(C)cc(F)c3)c(N3CCC(N)CC3)c2-c2nc3cc(Cl)ccc3[nH]2)C(C)C)c(O[C@@H]2O[C@H](C(=O)NCC(=O)O)[C@@H](O)[C@H](O)[C@H]2O)c1)C(C)C` [Compound 219], the EC50 in assay [1] stood at 0.099 nM; at SST2, 2.7 nM; in assay [2] it was 7.5 nM.
For the compound `CC[C@H](C)[C@@H]([C@@H](CC(=O)N1CCC[C@H]1[C@H](OC)[C@@H](C)C(=O)N[C@H](C)[C@@H](O)c1ccccc1)OC)N(C)C(=O)[C@@H](NC(=O)[C@H](C(C)C)N(C)C(=O)OCc1ccc(NC(=O)[C@H](C)NC(=O)[C@@H](NC(=O)[C@@H](CS(=O)(=O)O)NC(=O)CCOCCC(=O)NCCNc2ncc(-c3cc(C)cc(F)c3)c(N3CCC(N)CC3)c2-c2nc3ccc(Cl)cc3[nH]2)C(C)C)cc1C(=O)N1CC(C(=O)O)C1)C(C)C` [Compound 78], the EC50 in assay [1] is 0.22 nM; at SST2, 8.7 nM; in assay [2], 350 nM.
The corresponding values for `CC[C@H](C)[C@@H]([C@@H](CC(=O)N1CCC[C@H]1[C@H](OC)[C@@H](C)C(=O)N[C@H](C)[C@@H](O)c1ccccc1)OC)N(C)C(=O)[C@@H](NC(=O)[C@H](C(C)C)N(C)C(=O)OCc1ccc(NC(=O)[C@H](CCCNC(N)=O)NC(=O)[C@@H](NC(=O)c2cc(NCCOCCC(=O)NCCNc3ncc(-c4cc(C)cc(F)c4)c(N4CCC(N)CC4)c3-c3nc4ccc(Cl)cc4[nH]3)cc(C(=O)NCCCC(=O)O)c2)C(C)C)cc1)C(C)C` [Compound 146] are 0.29 nM, 9.9 nM and 62 nM.
Turning to `CC[C@H](C)[C@@H]([C@@H](CC(=O)N1CCC[C@H]1[C@H](OC)[C@@H](C)C(=O)N[C@H](C)[C@@H](O)c1ccccc1)OC)N(C)C(=O)[C@@H](NC(=O)[C@H](C(C)C)N(C)C(=O)OCc1ccc(NC(=O)[C@H](C)NC(=O)[C@@H](NC(=O)CCOCCC(=O)NCCNc2ncc(-c3cc(C)cc(F)c3)c(N3CCC(N)CC3)c2-c2cc3ccc(OC)cc3[nH]2)C(C)C)c(O[C@@H]2O[C@H](C(=O)O)[C@@H](O)[C@H](O)[C@H]2O)c1)C(C)C` [Compound 117], the EC50 is 0.46 nM in assay [1], 19 nM on SST2 and 58 nM in assay [2].
In the case of `CC[C@H](C)[C@@H]([C@@H](CC(=O)N1CCC[C@H]1[C@H](OC)[C@@H](C)C(=O)N[C@H](C)[C@@H](O)c1ccccc1)OC)N(C)C(=O)[C@@H](NC(=O)[C@H](C(C)C)N(C)C(=O)OCc1ccc(NC(=O)[C@H](CCCNC(N)=O)NC(=O)[C@@H](NC(=O)CCOCCC(=O)NCCNc2ncc(-c3cc(C)cc(F)c3)c(N3CCC(N)CC3)c2-c2nc3ccc(Cl)cc3[nH]2)C(C)C)cc1C(=O)N[C@@H](CCCNC(=O)CCCCc1ccc(I)cc1)C(=O)O)C(C)C` [Compound 247], the EC50 in assay [1] came to 0.19 nM; at SST2, 1.4 nM; in assay [2], 18 nM.
Take `CC[C@H](C)[C@@H]([C@@H](CC(=O)N1CCC[C@H]1[C@H](OC)[C@@H](C)C(=O)N[C@H](C)[C@@H](O)c1ccccc1)OC)N(C)C(=O)[C@@H](NC(=O)[C@H](C(C)C)N(C)C(=O)OCc1ccc(NC(=O)[C@H](CCCNC(N)=O)NC(=O)[C@@H](NC(=O)c2cc(NCCCCCC(=O)NCCNc3ncc(-c4cc(C)cc(F)c4)c(N4CCC(N)CC4)c3-c3nc4ccc(F)cc4[nH]3)cc(C(=O)NCC(=O)O)c2)C(C)C)cc1)C(C)C` [Compound 167]: the values for the EC50 (in assay [1]; at SST2; in assay [2]) were 0.24 nM, 13 nM and 150 nM, respectively.
As for `CC[C@H](C)[C@@H]([C@@H](CC(=O)N1CCC[C@H]1[C@H](OC)[C@@H](C)C(=O)N[C@H](C)[C@@H](O)c1ccccc1)OC)N(C)C(=O)[C@@H](NC(=O)[C@H](C(C)C)N(C)C(=O)OCc1ccc(NC(=O)[C@H](CCCNC(N)=O)NC(=O)[C@@H](NC(=O)CCOCCOCCC(=O)NCCNc2ncc(-c3cc(C)cc(F)c3)c(N3CCC(N)CC3)c2-c2nc3ccc(Cl)cc3[nH]2)C(C)C)cc1C(=O)NCCNC(=O)CCOCCOCCOCCOCCC(=O)O)C(C)C` [Compound 74], the EC50 in assay [1] is 0.19 nM; on SST2, 4.3 nM; in assay [2], 17 nM.
Regarding `CC[C@H](C)[C@@H]([C@@H](CC(=O)N1CCC[C@H]1[C@H](OC)[C@@H](C)C(=O)N[C@H](C)[C@@H](O)c1ccccc1)OC)N(C)C(=O)[C@@H](NC(=O)[C@H](C(C)C)N(C)C(=O)OCc1ccc(NC(=O)[C@H](CCCNC(N)=O)NC(=O)[C@@H](NC(=O)[C@@H](CCC(=O)O)NC(=O)CCOCCC(=O)NCCNc2ncc(-c3cc(C)cc(F)c3)c(N3CCC(N)CC3)c2-c2nc3ccc(Cl)cc3[nH]2)C(C)C)cc1C(=O)NCCN)C(C)C` [Compound 25], the EC50 in assay [1] was found to be 0.29 nM; at SST2 it was 6.5 nM; in assay [2], 41 nM.
On to `CC[C@H](C)[C@@H]([C@@H](CC(=O)N1CCC[C@H]1[C@H](OC)[C@@H](C)C(=O)N[C@H](C)[C@@H](O)c1ccccc1)OC)N(C)C(=O)[C@@H](NC(=O)[C@H](C(C)C)N(C)C(=O)OCc1ccc(NC(=O)[C@H](CCCNC(N)=O)NC(=O)[C@@H](NC(=O)CCOCCOCCOCCOCCC(=O)NCCNc2ncc(-c3cc(C)cc(F)c3)c(N3CCC(N)CC3)c2-c2nc3ccc(Cl)cc3[nH]2)C(C)C)cc1C(=O)N1CC(C(=O)O)C1)C(C)C` [Compound 67], for which the results for the EC50 (in assay [1]; at SST2; in assay [2]) were 0.086 nM, 5.5 nM and 85 nM, respectively.
